Data taken from ChEMBL document CHEMBL1201862, “PubChem BioAssay data set” (2004).
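Tested at 5 concentrations; 48 h exposure; 96-well plates; endpoints linearly interpolated, else capped at highest concentration. GI50: concentration for 50% inhibition of growth.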 Activity calls are given as the source filed them. Rule as the data show it: active = GI50 up to about 1.1 µM and inactive = higher.

Tests used:
Test in all cases: inhibition of tumour cell growth, NCI panel, 48 h
[1] = tested on: 786-0
[2] = tested on: A498
[3] = tested on: A549
[4] = tested on: ACHN
[5] = tested on: CAKI-1
[6] = tested on: CCRF-CEM
[7] = tested on: COLO 205
[8] = tested on: DLD-1
[9] = tested on: DMS-114
[10] = tested on: DMS-273
[11] = tested on: HCC 2998
[12] = tested on: HCT-116
[13] = tested on: HCT-15
[14] = tested on: HL-60
[15] = tested on: HOP-18
[16] = tested on: HOP-62
[17] = tested on: HOP-92
[18] = tested on: HT-29
[19] = tested on: IGROV-1
[20] = tested on: K562
[21] = tested on: KM-20L2
[22] = tested on: KM12
[23] = tested on: LOX IMVI
[24] = tested on: LXFL 529
[25] = tested on: M14
[26] = tested on: M19-MEL
[27] = tested on: MOLT-4
[28] = tested on: Malme-3M
[29] = tested on: NCI-H226
[30] = tested on: NCI-H23
[31] = tested on: NCI-H460
[32] = tested on: NCI-H522
[33] = tested on: OVCAR-3
[34] = tested on: OVCAR-4
[35] = tested on: OVCAR-5
[36] = tested on: OVCAR-8
[37] = tested on: RPMI-8226
[38] = tested on: RXF 393
[39] = tested on: RXF 631
[40] = tested on: SF-268
[41] = tested on: SF-295
[42] = tested on: SF-539
[43] = tested on: SK-MEL-28
[44] = tested on: SK-MEL-2
[45] = tested on: SK-MEL-5
[46] = tested on: SK-OV-3
[47] = tested on: SN12C
[48] = tested on: SNB-19
[49] = tested on: SNB-75
[50] = tested on: SNB-78
[51] = tested on: SR
[52] = tested on: SW-620
[53] = tested on: TK-10
[54] = tested on: U-251
[55] = tested on: UACC-257
[56] = tested on: UACC-62
[57] = tested on: UO-31
[58] = tested on: EKVX

Measured: GI50

Cc1c2c(c(C)c3c1[nH]c1ccccc13)CN(C)CC2
15.3 µM: [13]
inactive: [1] 14.9 µM | [2] 19.5 µM | [3] 17.9 µM | [4] 18.2 µM | [5] 13.2 µM | [6] 49.4 µM | [7] 15 µM | [8] 34.4 µM | [9] 15.1 µM | [10] 16.7 µM | [11] 16.7 µM | [12] 16 µM | [14] 52 µM | [15] 6.21 µM | [16] 23.2 µM | [17] 16.6 µM | [18] 16.7 µM | [19] 26.8 µM | [20] 31.3 µM | [21] 18.8 µM | [22] 16.6 µM | [23] 15.5 µM | [24] 14.9 µM | [25] 15.1 µM | [26] 16.6 µM | [27] 28.7 µM | [28] 16.7 µM | [29] 19.1 µM | [30] 15.4 µM | [31] 16.5 µM | [32] 17 µM | [33] 18.7 µM | [34] 23.4 µM | [35] 38.8 µM | [36] 16.4 µM | [37] 26.4 µM | [38] 17.6 µM | [39] 22.8 µM | [40] 20.3 µM | [41] 17.1 µM | [42] 14.2 µM | [43] 19.2 µM | [44] 17.3 µM | [45] 13.3 µM | [46] 25.5 µM | [47] 20.6 µM | [48] 27.4 µM | [49] 13.5 µM | [50] 21.9 µM | [51] 24.8 µM | [52] 15.3 µM | [53] 29.4 µM | [54] 12.1 µM | [55] 17.2 µM | [56] 18 µM | [57] 19.5 µM

CCOC(=O)N1CCN(C=S)CC1
> 100 µM: [13]
inactive: [1] > 100 µM | [2] > 100 µM | [3] > 100 µM | [4] > 100 µM | [6] > 100 µM | [7] > 100 µM | [8] > 100 µM | [9] > 100 µM | [10] > 100 µM | [58] > 100 µM | [11] > 100 µM | [12] > 100 µM | [14] > 100 µM | [15] > 100 µM | [16] > 100 µM | [18] > 100 µM | [19] > 100 µM | [20] > 100 µM | [21] > 100 µM | [22] > 100 µM | [23] > 100 µM | [24] > 100 µM | [25] > 100 µM | [26] > 100 µM | [27] > 100 µM | [28] > 100 µM | [30] > 100 µM | [31] > 100 µM | [32] > 100 µM | [33] > 100 µM | [35] > 100 µM | [36] > 100 µM | [38] > 100 µM | [39] > 100 µM | [40] > 100 µM | [42] > 100 µM | [43] > 100 µM | [44] > 100 µM | [45] > 100 µM | [46] > 100 µM | [47] > 100 µM | [48] > 100 µM | [49] > 100 µM | [50] > 100 µM | [51] > 100 µM | [52] > 100 µM | [53] > 100 µM | [54] > 100 µM | [55] > 100 µM | [56] > 100 µM | [57] > 100 µM

Cc1ccc(C2=NN(C)COC2C(F)(F)F)cc1 (centres undefined)
inactive: [1] > 100 µM | [3] > 100 µM | [4] > 100 µM | [5] > 100 µM | [6] > 100 µM | [7] > 100 µM | [8] > 100 µM | [9] > 100 µM | [10] > 100 µM | [58] > 100 µM | [11] > 100 µM | [12] > 100 µM | [14] > 100 µM | [15] > 100 µM | [16] > 100 µM | [17] > 100 µM | [18] > 100 µM | [19] > 100 µM | [20] > 100 µM | [21] > 100 µM | [22] > 100 µM | [24] > 100 µM | [25] > 100 µM | [26] > 100 µM | [27] > 100 µM | [28] > 100 µM | [29] > 100 µM | [30] > 100 µM | [31] > 100 µM | [32] > 100 µM | [33] > 100 µM | [34] > 100 µM | [35] > 100 µM | [36] > 100 µM | [37] > 100 µM | [38] > 100 µM | [39] > 100 µM | [40] > 100 µM | [41] > 100 µM | [42] > 100 µM | [43] > 100 µM | [44] > 100 µM | [45] > 100 µM | [46] > 100 µM | [47] > 100 µM | [48] > 100 µM | [49] 21.2 µM | [50] > 100 µM | [51] > 100 µM | [52] > 100 µM | [54] > 100 µM | [55] > 100 µM | [56] 18.6 µM | [57] > 100 µM
> 100 µM: [13]
